Measurements published in PubChem BioAssay (NCI).
Where “and” joins values, the source holds several entries; their conditions need not be identical. Equal values may be shown once.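 These data come from cells grown in 96-well plates and exposed to compound for 48 hours at five concentrations. GI50 = concentration required for 50% inhibition of growth. The concentration for full growth arrest is given as TGI.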

Key:
Test in all cases: inhibition of tumour cell growth, NCI panel, 48 h
KM12 colon = tested on: KM12 colon
SW-620 colon = tested on: SW-620 colon
NCI-H226 lung = tested on: NCI-H226 lung
OVCAR-5 ovarian = tested on: OVCAR-5 ovarian
PC-3 prostate = tested on: PC-3 prostate
HOP-92 NSCLC = tested on: HOP-92 NSCLC
MDA-MB-435 = tested on: MDA-MB-435
UO-31 renal = tested on: UO-31 renal
RPMI-8226 leukemia = tested on: RPMI-8226 leukemia
SR leukemia = tested on: SR leukemia
UACC-62 melanoma = tested on: UACC-62 melanoma
OVCAR-4 ovarian = tested on: OVCAR-4 ovarian
SNB-75 CNS = tested on: SNB-75 CNS
HCC-2998 colon = tested on: HCC-2998 colon
HOP-62 NSCLC = tested on: HOP-62 NSCLC
SF-295 CNS = tested on: SF-295 CNS
HCT-116 colon = tested on: HCT-116 colon
SK-MEL-28 melanoma = tested on: SK-MEL-28 melanoma
COLO 205 colon = tested on: COLO 205 colon
M14 melanoma = tested on: M14 melanoma
HCT-15 colon = tested on: HCT-15 colon
NCI-H522 lung = tested on: NCI-H522 lung
BT-549 breast = tested on: BT-549 breast
TK-10 renal = tested on: TK-10 renal
DU-145 prostate = tested on: DU-145 prostate
MCF7 breast = tested on: MCF7 breast
SK-MEL-2 melanoma = tested on: SK-MEL-2 melanoma
MDA-MB-231 breast = tested on: MDA-MB-231 breast
MOLT-4 leukemia = tested on: MOLT-4 leukemia
SK-OV-3 ovarian = tested on: SK-OV-3 ovarian
SNB-19 CNS = tested on: SNB-19 CNS
SN12C renal = tested on: SN12C renal
SF-539 CNS = tested on: SF-539 CNS
SK-MEL-5 melanoma = tested on: SK-MEL-5 melanoma
IGROV1 ovarian = tested on: IGROV1 ovarian
786-0 renal = tested on: 786-0 renal
A549 NSCLC = tested on: A549 NSCLC
EKVX NSCLC = tested on: EKVX NSCLC
U251 CNS = tested on: U251 CNS
HS 578T breast = tested on: HS 578T breast
MALME-3M melanoma = tested on: MALME-3M melanoma
OVCAR-8 ovarian = tested on: OVCAR-8 ovarian
NCI/ADR-RES ovarian = tested on: NCI/ADR-RES ovarian
MDA-N = tested on: MDA-N
HT29 colon = tested on: HT29 colon
T-47D breast = tested on: T-47D breast
CAKI-1 renal = tested on: CAKI-1 renal
OVCAR-3 ovarian = tested on: OVCAR-3 ovarian
CCRF-CEM leukemia = tested on: CCRF-CEM leukemia
NCI-H23 lung = tested on: NCI-H23 lung
UACC-257 melanoma = tested on: UACC-257 melanoma
LOX IMVI melanoma = tested on: LOX IMVI melanoma
SF-268 CNS = tested on: SF-268 CNS
NCI-H460 lung = tested on: NCI-H460 lung
HL-60(TB) leukemia = tested on: HL-60(TB) leukemia
ACHN renal = tested on: ACHN renal
RXF 393 renal = tested on: RXF 393 renal
K-562 leukemia = tested on: K-562 leukemia
A498 renal = tested on: A498 renal

## OCCCCCCCCCCCOc1ccc(C2OCC3(CC=CCC3)CO2)cc1 (configuration not stated)
KM12 colon
  TGI: 28.7 µM
SW-620 colon
  TGI: 39.1 µM
NCI-H226 lung
  TGI: 52.9 µM
OVCAR-5 ovarian
  TGI: 46.3 µM
PC-3 prostate
  TGI: 22.8 µM
HOP-92 NSCLC
  TGI: 32.8 µM
MDA-MB-435
  TGI: 38 µM
UO-31 renal
  TGI: 40.9 µM
RPMI-8226 leukemia
  TGI: > 100 µM
SR leukemia
  TGI: 17.1 µM
UACC-62 melanoma
  TGI: 32.8 µM
OVCAR-4 ovarian
  TGI: 34 µM
SNB-75 CNS
  TGI: 28.2 µM
HCC-2998 colon
  TGI: 38 µM
HOP-62 NSCLC
  TGI: 35.9 µM
SF-295 CNS
  TGI: 34.7 µM
HCT-116 colon
  TGI: 29.3 µM
SK-MEL-28 melanoma
  TGI: 42.4 µM
COLO 205 colon
  TGI: 46.8 µM
M14 melanoma
  TGI: 26 µM
HCT-15 colon
  TGI: 32.3 µM
NCI-H522 lung
  TGI: 23.4 µM
BT-549 breast
  TGI: 30.9 µM
TK-10 renal
  TGI: 32.1 µM
DU-145 prostate
  TGI: 32.6 µM
MCF7 breast
  TGI: 19.6 µM
SK-MEL-2 melanoma
  TGI: > 100 µM
MDA-MB-231 breast
  TGI: 31.4 µM
MOLT-4 leukemia
  TGI: > 100 µM
SK-OV-3 ovarian
  TGI: 37 µM
SNB-19 CNS
  TGI: 43.5 µM
SN12C renal
  TGI: 36.8 µM
SF-539 CNS
  TGI: 45.6 µM
SK-MEL-5 melanoma
  TGI: 80.2 µM
IGROV1 ovarian
  TGI: 33 µM
786-0 renal
  TGI: 30.5 µM
A549 NSCLC
  TGI: 45.7 µM
EKVX NSCLC
  TGI: 23.8 µM
U251 CNS
  TGI: 33.2 µM
HS 578T breast
  TGI: 40 µM
MALME-3M melanoma
  TGI: 43.4 µM
OVCAR-8 ovarian
  TGI: 43.1 µM
NCI/ADR-RES ovarian
  TGI: 36.3 µM
MDA-N
  TGI: 32 µM
HT29 colon
  TGI: 14.8 µM
T-47D breast
  TGI: 31 µM
CAKI-1 renal
  TGI: 31.1 µM
OVCAR-3 ovarian
  TGI: 57.3 µM
CCRF-CEM leukemia
  TGI: 55.6 µM
NCI-H23 lung
  TGI: 31.6 µM
UACC-257 melanoma
  TGI: 38.2 µM
LOX IMVI melanoma
  TGI: 25.2 µM
SF-268 CNS
  TGI: 40.9 µM
NCI-H460 lung
  TGI: 36.5 µM
HL-60(TB) leukemia
  TGI: 88.7 µM
ACHN renal
  TGI: 33.3 µM

## O=c1[nH]c(SCc2ccccc2[N+](=O)[O-])nc2nc[nH]c12
KM12 colon
  TGI: > 100 µM
SW-620 colon
  TGI: > 100 µM
NCI-H226 lung
  GI50: 84.7 µM and 33.4 µM
  TGI: > 100 µM and 98.3 µM
OVCAR-5 ovarian
  TGI: > 100 µM
PC-3 prostate
  TGI: > 100 µM
HOP-92 NSCLC
  TGI: > 100 µM
MDA-MB-435
  TGI: > 100 µM
UO-31 renal
  GI50: > 100 µM and 35.1 µM
  TGI: > 100 µM
RPMI-8226 leukemia
  TGI: > 100 µM
SR leukemia
  TGI: > 100 µM
UACC-62 melanoma
  TGI: > 100 µM
OVCAR-4 ovarian
  GI50: 30.3 µM and > 100 µM
  TGI: > 100 µM
SNB-75 CNS
  GI50: > 100 µM and 49.5 µM
  TGI: > 100 µM
HOP-62 NSCLC
  TGI: > 100 µM
SF-295 CNS
  TGI: > 100 µM
HCT-116 colon
  TGI: > 100 µM
SK-MEL-28 melanoma
  TGI: > 100 µM
COLO 205 colon
  TGI: > 100 µM
M14 melanoma
  TGI: > 100 µM
HCT-15 colon
  TGI: > 100 µM
NCI-H522 lung
  TGI: > 100 µM
BT-549 breast
  TGI: > 100 µM
TK-10 renal
  TGI: > 100 µM
DU-145 prostate
  TGI: > 100 µM
MCF7 breast
  TGI: > 100 µM
RXF 393 renal
  TGI: > 100 µM
SK-MEL-2 melanoma
  TGI: > 100 µM
MDA-MB-231 breast
  GI50: > 100 µM and 40.8 µM
  TGI: > 100 µM
MOLT-4 leukemia
  TGI: > 100 µM
SK-OV-3 ovarian
  TGI: > 100 µM
SNB-19 CNS
  TGI: > 100 µM
SN12C renal
  TGI: > 100 µM
SF-539 CNS
  TGI: > 100 µM
K-562 leukemia
  TGI: > 100 µM
SK-MEL-5 melanoma
  TGI: > 100 µM
IGROV1 ovarian
  TGI: > 100 µM
786-0 renal
  TGI: > 100 µM
A549 NSCLC
  TGI: > 100 µM
EKVX NSCLC
  TGI: > 100 µM
U251 CNS
  TGI: > 100 µM
HS 578T breast
  TGI: > 100 µM
MALME-3M melanoma
  TGI: > 100 µM
OVCAR-8 ovarian
  TGI: > 100 µM
NCI/ADR-RES ovarian
  TGI: > 100 µM
MDA-N
  TGI: > 100 µM
HT29 colon
  TGI: > 100 µM
T-47D breast
  TGI: > 100 µM
CAKI-1 renal
  TGI: > 100 µM
OVCAR-3 ovarian
  TGI: > 100 µM
CCRF-CEM leukemia
  GI50: > 100 µM and 29.6 µM
  TGI: > 100 µM
NCI-H23 lung
  TGI: > 100 µM
A498 renal
  TGI: > 100 µM
UACC-257 melanoma
  TGI: > 100 µM
LOX IMVI melanoma
  TGI: > 100 µM
SF-268 CNS
  TGI: > 100 µM
NCI-H460 lung
  TGI: > 100 µM
HL-60(TB) leukemia
  TGI: > 100 µM
ACHN renal
  TGI: > 100 µM

## COc1ccc(/C=C2\CCc3cc(OC)c(OC)cc3C2=O)cc1
KM12 colon
  TGI: > 10 µM
SW-620 colon
  TGI: > 10 µM
NCI-H226 lung
  TGI: > 10 µM
OVCAR-5 ovarian
  TGI: > 10 µM
PC-3 prostate
  TGI: > 10 µM
HOP-92 NSCLC
  TGI: > 10 µM
MDA-MB-435
  TGI: > 10 µM
UO-31 renal
  TGI: > 10 µM
RPMI-8226 leukemia
  TGI: > 10 µM
SR leukemia
  TGI: > 10 µM
UACC-62 melanoma
  TGI: > 10 µM
OVCAR-4 ovarian
  TGI: > 10 µM
SNB-75 CNS
  TGI: > 10 µM
HCC-2998 colon
  TGI: > 10 µM
HOP-62 NSCLC
  TGI: > 10 µM
SF-295 CNS
  TGI: > 10 µM
HCT-116 colon
  TGI: > 10 µM
SK-MEL-28 melanoma
  TGI: > 10 µM
COLO 205 colon
  TGI: > 10 µM
M14 melanoma
  TGI: > 10 µM
HCT-15 colon
  TGI: > 10 µM
BT-549 breast
  TGI: > 10 µM
TK-10 renal
  TGI: > 10 µM
DU-145 prostate
  TGI: > 10 µM
MCF7 breast
  TGI: > 10 µM
RXF 393 renal
  TGI: > 10 µM
SK-MEL-2 melanoma
  TGI: > 10 µM
MDA-MB-231 breast
  TGI: > 10 µM
MOLT-4 leukemia
  TGI: > 10 µM
SK-OV-3 ovarian
  TGI: > 10 µM
SNB-19 CNS
  TGI: > 10 µM
SN12C renal
  TGI: > 10 µM
SF-539 CNS
  TGI: > 10 µM
K-562 leukemia
  TGI: > 10 µM
SK-MEL-5 melanoma
  TGI: > 10 µM
IGROV1 ovarian
  TGI: > 10 µM
786-0 renal
  TGI: > 10 µM
A549 NSCLC
  TGI: > 10 µM
EKVX NSCLC
  TGI: > 10 µM
U251 CNS
  TGI: > 10 µM
HS 578T breast
  TGI: > 10 µM
MALME-3M melanoma
  TGI: > 10 µM
OVCAR-8 ovarian
  TGI: > 10 µM
NCI/ADR-RES ovarian
  TGI: > 10 µM
MDA-N
  TGI: > 10 µM
HT29 colon
  TGI: > 10 µM
T-47D breast
  TGI: > 10 µM
CAKI-1 renal
  TGI: > 10 µM
OVCAR-3 ovarian
  TGI: > 10 µM
CCRF-CEM leukemia
  TGI: > 10 µM
NCI-H23 lung
  TGI: > 10 µM
UACC-257 melanoma
  TGI: > 10 µM
LOX IMVI melanoma
  TGI: > 10 µM
SF-268 CNS
  TGI: > 10 µM
NCI-H460 lung
  TGI: > 10 µM
HL-60(TB) leukemia
  TGI: > 10 µM
ACHN renal
  TGI: > 10 µM
